Drawing on PubChem BioAssay (NCI), this text covers TGI and GI50 for twelve compounds.

Among the test systems are OVCAR-8 ovarian; SF-268 CNS; IGROV1 ovarian; EKVX NSCLC; NCI-H23 lung; LOX IMVI melanoma; MALME-3M melanoma.
Test in all cases: NCI tumour cell line growth inhibition, 48 h

The structures appear in SMILES notation.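 48-hour exposure; five concentrations; linearly interpolated endpoints. GI50 is the concentration that inhibits growth by half. TGI: total growth inhibition.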 Some results are limits rather than exact numbers.

On to `CCOC(=O)c1cc2c(OC)cc(OC)cc2oc1=O`, for which the TGI with OVCAR-8 ovarian, in the test on SF-268 CNS, with IGROV1 ovarian, in the test on EKVX NSCLC, in the test with NCI-H23 lung and in the test with LOX IMVI melanoma was > 100 µM each time. Also, in the test with MALME-3M melanoma, the TGI was > 100 µM.

Turning to `COc1ccc2c(c1)OC(N)=C(C#N)C2c1ccc(F)c(F)c1` (stereo not drawn), the GI50 in the test on OVCAR-8 ovarian is 0.602 µM; with SF-268 CNS, 0.754 µM; in the test on IGROV1 ovarian it was 0.715 µM; in the test on EKVX NSCLC it was 0.751 µM; in the test with NCI-H23 lung, 1.15 µM; in the test on LOX IMVI melanoma, 0.589 µM. The GI50 in the test with MALME-3M melanoma is 0.619 µM. The TGI with OVCAR-8 ovarian is > 44.3 µM; with SF-268 CNS, > 65.4 µM; with IGROV1 ovarian, > 100 µM; in the test with EKVX NSCLC it was > 100 µM; in the test on NCI-H23 lung it was > 100 µM; in the test on LOX IMVI melanoma it was > 100 µM. Further, the TGI in the test on MALME-3M melanoma came out at 77.4 µM.

As to `CN(CCNc1ccc(C(=N)N)cc1)c1ccc(C(=N)N)cc1`, the GI50 was 50 µM in the test on OVCAR-8 ovarian; 37.8 µM in the test with SF-268 CNS; 68.8 µM with IGROV1 ovarian; 20 µM in the test with EKVX NSCLC; 21.6 µM with NCI-H23 lung; > 100 µM with LOX IMVI melanoma. The GI50 in the test with MALME-3M melanoma was 26.6 µM. The TGI with OVCAR-8 ovarian, in the test on SF-268 CNS, with IGROV1 ovarian, in the test with EKVX NSCLC, with NCI-H23 lung and with LOX IMVI melanoma was > 100 µM each time. For the same compound, the TGI in the test on MALME-3M melanoma was > 100 µM.

As to `CN1CCN(C(=O)OCc2nc3c(N4CCOCC4)nc(-c4ccccc4)nc3n2C)CC1`, the GI50 with OVCAR-8 ovarian was 1.17 µM; with SF-268 CNS, 1.41 µM; with IGROV1 ovarian, 0.632 µM; with EKVX NSCLC, 1.39 µM; with NCI-H23 lung, 1.54 µM; with LOX IMVI melanoma it was 0.176 µM. In the test with MALME-3M melanoma, the GI50 was 1.44 µM. In addition, the TGI was found to be 3.04 µM with OVCAR-8 ovarian; 2.85 µM with SF-268 CNS; 2.03 µM in the test with IGROV1 ovarian; 2.94 µM with EKVX NSCLC; 3.21 µM with NCI-H23 lung; 0.443 µM with LOX IMVI melanoma. The TGI in the test on MALME-3M melanoma came out at 2.8 µM.

As to `CC(C)c1ccc2c(c1)CCC1C(C)(CN)CCCC21C` (stereo not drawn), the TGI with OVCAR-8 ovarian was found to be 3.4 µM; in the test on SF-268 CNS, 3.22 µM; in the test on IGROV1 ovarian, 2.93 µM; in the test on EKVX NSCLC it was 3.4 µM; with NCI-H23 lung it was 3.36 µM; in the test on LOX IMVI melanoma it was 2.99 µM. The same compound showed a TGI in the test on MALME-3M melanoma of 2.8 µM.

In the case of `NS(=O)(=O)c1ccc(N=Nc2c(O)[nH]c3cccc(CCc4ccncc4)c23)cc1`, the GI50 in the test with OVCAR-8 ovarian, in the test with SF-268 CNS, in the test with IGROV1 ovarian, in the test on EKVX NSCLC, in the test on NCI-H23 lung and in the test with LOX IMVI melanoma was > 25 µM throughout. Moreover, the GI50 in the test with MALME-3M melanoma was > 25 µM. The TGI in the test with OVCAR-8 ovarian, in the test with SF-268 CNS, in the test with IGROV1 ovarian, in the test with EKVX NSCLC, with NCI-H23 lung and with LOX IMVI melanoma was > 25 µM each time. In the test on MALME-3M melanoma, the TGI is > 25 µM.

For `CCCC(c1cc(C(C)(C)C)c(O)cc1C)c1cc(C(C)(C)C)c(O)cc1C`, the TGI in the test with OVCAR-8 ovarian is 12.9 µM; in the test on SF-268 CNS, 15.1 µM; in the test with IGROV1 ovarian, 14.6 µM; in the test on EKVX NSCLC, 7.75 µM; in the test on NCI-H23 lung it was 6.24 µM; in the test with LOX IMVI melanoma, 3.43 µM. The TGI in the test with MALME-3M melanoma stood at 9.78 µM.

Consider `Cc1cc(C)c2c(=O)cc(-c3ccc(F)cc3)[nH]c2n1`, for which the TGI in the test on OVCAR-8 ovarian, in the test on SF-268 CNS, in the test on IGROV1 ovarian, in the test with EKVX NSCLC, in the test with NCI-H23 lung and in the test on LOX IMVI melanoma was > 100 µM in each case. For the same compound, the TGI in the test with MALME-3M melanoma is > 100 µM.

For the compound `Cc1cccc2c1NC(=O)[C@@H](NC(=O)[C@H](CCC(F)(F)F)[C@H](CCC(F)(F)F)C(N)=O)N=C2c1cccc(F)c1`, the GI50 with OVCAR-8 ovarian was 30.5 µM; with SF-268 CNS it was 23.2 µM; with IGROV1 ovarian, 27.7 µM; in the test with EKVX NSCLC, 40.5 µM; in the test on NCI-H23 lung, 30.5 µM; in the test with LOX IMVI melanoma it was 64.8 µM. Also, in the test on MALME-3M melanoma, the GI50 is 50 µM. Moreover, the TGI in the test with OVCAR-8 ovarian is > 100 µM; with SF-268 CNS, 70 µM; in the test on IGROV1 ovarian it was > 100 µM; in the test with EKVX NSCLC it was > 100 µM; in the test with NCI-H23 lung, > 100 µM; with LOX IMVI melanoma it was > 100 µM. Further, the TGI with MALME-3M melanoma was > 100 µM.

In the case of `Cc1ccc([I+]c2ccc(C)cc2)cc1`, the GI50 in the test on OVCAR-8 ovarian is 2.2 µM; in the test on SF-268 CNS, 7.49 µM; in the test with IGROV1 ovarian, 4.42 µM; in the test with EKVX NSCLC it was 0.484 µM; with NCI-H23 lung it was 2.03 µM; in the test on LOX IMVI melanoma it was 2.33 µM. Besides, the GI50 in the test on MALME-3M melanoma is 1.97 µM. For the same compound, the TGI with OVCAR-8 ovarian is 46.5 µM; in the test on SF-268 CNS it was > 100 µM; with IGROV1 ovarian, > 100 µM; in the test with EKVX NSCLC it was 42.5 µM; in the test with NCI-H23 lung, 93.4 µM; in the test on LOX IMVI melanoma it was > 100 µM. In the test with MALME-3M melanoma, this compound gave a TGI of 44.8 µM.

Turning to `CO[C@@H]1[C@H](N(C)C(=O)c2ccccc2)C[C@@H]2O[C@]1(C)n1c3ccccc3c3c4c(c5c6ccccc6n2c5c31)C(=O)NC4=O`, the GI50 is 94.6 µM with OVCAR-8 ovarian; 0.763 µM in the test on SF-268 CNS; 0.523 µM in the test on IGROV1 ovarian; 0.858 µM with EKVX NSCLC; 0.842 µM in the test with NCI-H23 lung; 0.654 µM with LOX IMVI melanoma. For the same compound, the GI50 with MALME-3M melanoma was 0.732 µM. Besides, the TGI with OVCAR-8 ovarian, in the test with SF-268 CNS, in the test on IGROV1 ovarian, with EKVX NSCLC, with NCI-H23 lung and in the test on LOX IMVI melanoma was > 100 µM in each case. Further, the TGI in the test on MALME-3M melanoma was > 100 µM.

Turning to `OC1CCC(COC(c2ccccc2)(c2ccccc2)c2ccccc2)O1` (stereo not drawn), the TGI was 35.8 µM in the test on OVCAR-8 ovarian; 33.6 µM in the test on SF-268 CNS; 36.8 µM in the test with IGROV1 ovarian; > 10 µM in the test on EKVX NSCLC; 35.4 µM in the test with NCI-H23 lung; 34.3 µM in the test on LOX IMVI melanoma. Besides, the TGI with MALME-3M melanoma came to 42.3 µM.
